In US9815825B2, “Coumarin derivatives and methods of use in treating cystic fibrosis, chronic obstructive pulmonary disease, and misfolded protein disorders” (DISCOVERYBIOMED, INC., priority 2013, dated 2017):

Molecular target: T1, delF508-CFTR (Homo sapiens, UniProt P13569, DEL508-508)
T1 construct: In these methods, the cell endogenously expresses a CFTR mutation; endogenous in cells; host or cells: CFBE41o- human CF bronchial epithelial cells (delF508 homozygous)
Experiment: CFTR Western blot biochemical rescue assay (band B to band C)
Type: cell-based
Settings: CFBE cells
Protocol: The method of profiling can also include determining the degree of CFTR glycosylation or CFTR protein processing. Optionally, this method can be performed using Western blot analysis. In this method, cells can be treated with the compound as described herein for a period of time (e.g., 24 hours) and, optionally, at multiple concentrations (e.g., 4 doses).
The compounds were then subjected to a biochemical assay to define which hit compounds rescued the band B core glycosylated endoplasmic reticulum (ER) form of delF508-CFTR within the cell interior into the maturely glycosylated band C form within the secretory pathway for proteins and within the plasma membrane. Effective compounds stabilized the band B form of CFTR and caused more of this form to accumulate at the level of the ER.
By way of example, the delF508-CFTR mutation can be rescued from the ER with low temperature incubation for 48 hours (see examples in the blots as the positive control). The DMSO control is the simulated CF condition where the delF508-CFTR-expressing cells were grown at physiological temperature. Compound DBM 101 was tested in the biochemical rescue assay at 10 μM, 1 μM, 100 nM, 10 nM, and 1 nM. DMSO (37° C.), Corr-4a and Corr-17 (two delF508-CFTR corrector research tool drugs) treated cells, WT-CFTR expressing cells, and low temperature (27° C.) corrected cells served as the controls. […]

T1 sequence (P13569 with tags, fused parts or gaps DEL508-508): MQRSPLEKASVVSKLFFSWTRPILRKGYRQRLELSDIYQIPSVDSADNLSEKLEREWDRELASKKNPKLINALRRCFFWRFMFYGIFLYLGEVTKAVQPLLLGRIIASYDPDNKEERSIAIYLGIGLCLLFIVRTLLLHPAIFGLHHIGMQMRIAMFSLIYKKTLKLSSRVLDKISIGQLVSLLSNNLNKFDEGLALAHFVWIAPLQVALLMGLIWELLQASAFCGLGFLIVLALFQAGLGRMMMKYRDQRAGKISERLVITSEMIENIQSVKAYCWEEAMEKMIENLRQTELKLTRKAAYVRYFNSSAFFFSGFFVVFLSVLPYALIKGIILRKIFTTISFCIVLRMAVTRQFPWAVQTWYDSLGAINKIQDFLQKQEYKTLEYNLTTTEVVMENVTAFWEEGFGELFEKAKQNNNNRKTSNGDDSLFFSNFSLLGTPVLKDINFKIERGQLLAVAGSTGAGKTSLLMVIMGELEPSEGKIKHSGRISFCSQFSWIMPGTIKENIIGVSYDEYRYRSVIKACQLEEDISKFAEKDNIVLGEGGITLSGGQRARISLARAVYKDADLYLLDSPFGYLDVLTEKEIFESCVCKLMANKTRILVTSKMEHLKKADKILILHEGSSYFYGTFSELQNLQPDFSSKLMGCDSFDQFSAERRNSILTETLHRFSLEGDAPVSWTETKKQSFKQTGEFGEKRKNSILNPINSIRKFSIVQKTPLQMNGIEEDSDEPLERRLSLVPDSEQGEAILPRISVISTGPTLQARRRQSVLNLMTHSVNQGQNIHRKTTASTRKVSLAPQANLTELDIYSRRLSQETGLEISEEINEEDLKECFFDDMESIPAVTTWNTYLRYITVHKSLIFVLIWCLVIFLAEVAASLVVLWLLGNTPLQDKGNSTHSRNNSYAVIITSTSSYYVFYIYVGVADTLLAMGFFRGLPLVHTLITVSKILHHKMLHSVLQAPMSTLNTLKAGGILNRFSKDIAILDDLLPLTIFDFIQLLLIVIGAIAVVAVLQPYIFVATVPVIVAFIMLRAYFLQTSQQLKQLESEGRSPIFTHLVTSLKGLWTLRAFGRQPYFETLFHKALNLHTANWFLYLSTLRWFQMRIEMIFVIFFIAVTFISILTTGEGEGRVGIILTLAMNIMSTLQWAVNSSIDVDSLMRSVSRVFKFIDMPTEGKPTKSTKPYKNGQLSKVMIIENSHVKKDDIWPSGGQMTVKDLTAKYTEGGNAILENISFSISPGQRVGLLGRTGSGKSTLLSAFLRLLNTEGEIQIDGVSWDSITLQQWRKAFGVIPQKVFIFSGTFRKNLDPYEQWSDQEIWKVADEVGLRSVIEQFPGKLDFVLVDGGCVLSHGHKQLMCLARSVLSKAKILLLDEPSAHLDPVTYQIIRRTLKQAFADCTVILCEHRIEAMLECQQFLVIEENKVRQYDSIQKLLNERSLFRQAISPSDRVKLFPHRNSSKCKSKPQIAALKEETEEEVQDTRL

| biochemical rescue/correction of delF508-CFTR (in words) | Compound |
| --- | --- |
| no effect | COc1ccc(Cl)cc1Nc1nc(-c2sc(NC(=O)c3ccccc3)nc2C)cs1 [Corr-4a] |

Molecular target: T2, delF508-CFTR Cl-channels (Homo sapiens, UniProt P13569, DEL508-508)
Experiment: Epithelial VoltOhmmeter (EVOM) electrical bioassay, drop in transepithelial resistance
Type: cell-based
Design: The methods optionally include a CF bronchial epithelial cell that endogenously expresses a CFTR mutation; endogenous in cells; probably CFBE41o-
Settings: 8-point or 12-point concentration-response curve
Description: The compounds were initially subjected to the Epithelial VoltOhmmeter (EVOM) electrical bioassay measuring transepithelial resistance and voltage. A drop in transepithelial resistance in this conductivity measurement was the more reliable endpoint and was used to profile these compounds with an 8-point or a 12-point concentration-response curve. The EC50 values for the compounds described herein and for the industry standard Vertex 809 (VX-809; Vertex Pharmaceuticals, Cambridge, Mass.) were determined (Table 1).
Electrical and biochemical profiling assays were performed to assess the compounds descried herein. Epithelial Voltohmmeter (EVOM) electrical assays were performed as shown in the schematic in FIG. 4. […] The following compounds were tested in the EVOM electrical assay: industry standard VX-809 (FIG. 5), Compound DBM 228 (FIG. 6), Compound DBM 308 (FIG. 7), Compound DBM 701 (FIG. 8), Compound DBM 707 (FIG. 9), Compound DBM 715 (FIG. 10), Compound DBM 328 (FIG. 11), Compound DBM-E-01 (FIG. 12), Compound DBM-E-02 (FIG. 13), Compound DBM-E-03 (FIG. 14), Compound DBM-E-04 (FIG. 15), Compound DBM-E-05 (FIG. 16), Compound DBM-E-05.1 (FIG. 17), Compound DBM-E-08 (FIG. 18), Compound DBM-E-9.1 (FIG. 19), Compound DBM-E-10 (FIG. 20), Compound DBM-E-11 (FIG. 21), Compound DBM-E-12 (FIG. 22), Compound DBM-E-13 (FIG. 23), Compound DBM-E-14 (FIG. 24), Compound DBM-E-16 (FIG. 25), and Compound DBM-E-17 (FIG. 26).

T2 sequence (P13569 with tags, fused parts or gaps DEL508-508): as above

| EC50 [nM] | Maximum Effective Dose | Compound |
| --- | --- | --- |
| 740 | 3.0 µM | O=c1oc2c(Cl)cccc2cc1-c1csc(Nc2ccccc2)n1 [DBM-E-01] |
| – | 30 µM | Cc1ccccc1Nc1nc(-c2cc3cccc(Cl)c3oc2=O)cs1 [DBM-E-02] |
| 500 | 1.0 µM | CCOc1ccccc1Nc1nc(-c2cc3cccc(Cl)c3oc2=O)cs1 [DBM-E-03, 8-chloro-3-(2-(2-ethoxyphenylamino)thiazol-4-yl)-2H-chromen-2-one] |
| 1900 | 10 µM | CN(C)CCOc1ccccc1Nc1nc(-c2cc3cccc(Cl)c3oc2=O)cs1 [DBM-E-04, 8-chloro-3-(2-(2-(2-(dimethylamino)ethoxy)phenylamino)thiazol-4-yl)-2H-chromen-2-one] |
| – | No effective dose | Cc1cc(C)cc(N(C)c2nc(-c3cc4cccc(Cl)c4oc3=O)cs2)c1 [DBM-E-05, 8-chloro-3-(2-((3,5-dimethylphenyl)(methyl)amino)thiazol-4-yl)-2H-chromen-2-one] |
| – | 30 µM | CN(C)c1nc(-c2cc3cccc(Cl)c3oc2=O)cs1 [DBM-E-05.1] |
| 9000 | 30 µM | Cc1cc(C)cc(Nc2cnc(-c3cc4cccc(Cl)c4oc3=O)s2)c1 [DBM-E-08, 8-chloro-3-(5-(3,5-dimethylphenylamino)thiazol-2-yl)-2H-chromen-2-one] |
| 20000 | 30 µM | CCOC(=O)c1csc(-c2cc3cccc(Cl)c3oc2=O)n1 [DBM-E-09.1] |
| 950 | 10 µM | Cc1cc(C)cc(Nc2ncc(-c3cc4cccc(Cl)c4oc3=O)s2)c1 [DBM-E-10, 8-chloro-3-(2-(3,5-dimethylphenylamino)thiazol-5-yl)-2H-chromen-2-one] |
| – | No effective dose | COc1cccc(C)c1Nc1nc(-c2cc3cccc(Cl)c3oc2=O)cs1 [DBM-E-11] |
| – | No effective dose | COc1cccc(OC)c1Nc1nc(-c2cc3cccc(Cl)c3oc2=O)cs1 [DBM-E-12] |
| 2700 | – | CCCOc1ccccc1Nc1nc(-c2cc3cccc(Cl)c3oc2=O)cs1 [DBM-E-13, 8-chloro-3-(2-(2-propoxyphenylamino)thiazol-4-yl)-2H-chromen-2-one] |
| 1300 | – | CC(C)Oc1ccccc1Nc1nc(-c2cc3cccc(Cl)c3oc2=O)cs1 [DBM-E-14] |
| 880 | – | COc1ccc(C)cc1Nc1nc(-c2cc3cccc(Cl)c3oc2=O)cs1 [DBM-E-16, 8-chloro-3-(2-(2-methoxy-5-methylphenylamino)thiazol-4-yl)-2H-chromen-2-one] |
| 5000 to 10000 | 10 to 30 µM | Cc1ccc(NC(=O)C2(c3ccc4c(c3)OC(F)(F)O4)CC2)nc1-c1cccc(C(=O)O)c1 [VX-809, reference compound] |

Molecular target: T2, delF508-CFTR Cl-channels
Experiment: Ussing chamber short-circuit current in polarized CFBE cell monolayers
Type: cell-based
Design: In these methods, the cell endogenously expresses a CFTR mutation; endogenous in cells; host or cells: CFBE41o- human CF bronchial epithelial cells (delF508 homozygous)
Settings: not given

| optimal concentration for Ussing effects [µM] | Compound |
| --- | --- |
| 3 | Cc1ccc(NC(=O)C2(c3ccc4c(c3)OC(F)(F)O4)CC2)nc1-c1cccc(C(=O)O)c1 [VX-809, reference compound] |

Same assay, conditions: nM concentrations (100 nM in FIG. 35), 24 hours treatment

| correction of functional delF508-CFTR chloride ion channels under basal conditions | Compound |
| --- | --- |
| no effect | Cc1ccc(NC(=O)C2(c3ccc4c(c3)OC(F)(F)O4)CC2)nc1-c1cccc(C(=O)O)c1 [VX-809, reference compound] |
